What was measured:
Type in all cases: cell-based, human
[1] = test system: CCRF-CEM; experiment: NCI in vitro cancer screen, Leukemia
[2] = test system: K-562; experiment: NCI in vitro cancer screen, Leukemia; conditions: K-562
[3] = test system: SR; experiment: NCI in vitro cancer screen, Leukemia
[4] = test system: A549/ATCC; experiment: NCI in vitro cancer screen, Non-Small Cell Lung Cancer
[5] = test system: EKVX; experiment: as above
[6] = test system: NCI-H226; experiment: as above; conditions: NCI-H226
[7] = test system: NCI-H322M; experiment: as above
[8] = test system: NCI-H522; experiment: as above; conditions: NCI-H522
[9] = test system: HCC-2998; experiment: NCI in vitro cancer screen, Colon Cancer; conditions: HCC-2998
[10] = test system: HCT-116; experiment: NCI in vitro cancer screen, Colon Cancer; conditions: HCT-116
[11] = test system: SW-620; experiment: NCI in vitro cancer screen, Colon Cancer; conditions: SW-620
[12] = test system: SF-295; experiment: NCI in vitro cancer screen, CNS Cancer; conditions: SF-295
[13] = test system: SNB-19; experiment: NCI in vitro cancer screen, CNS Cancer; conditions: SNB-19
[14] = test system: SNB-75; experiment: NCI in vitro cancer screen, CNS Cancer; conditions: SNB-75
[15] = test system: M14; experiment: NCI in vitro cancer screen, Melanoma; conditions: M14
[16] = test system: MDA-MB-435; experiment: NCI in vitro cancer screen, Melanoma; conditions: MDA-MB-435
[17] = test system: SK-MEL-28; experiment: NCI in vitro cancer screen, Melanoma; conditions: SK-MEL-28
[18] = test system: SK-MEL-5; experiment: NCI in vitro cancer screen, Melanoma; conditions: SK-MEL-5
[19] = test system: UACC-257; experiment: NCI in vitro cancer screen, Melanoma; conditions: UACC-257
[20] = test system: IGROV1; experiment: NCI in vitro cancer screen, Ovarian Cancer; conditions: IGROV1
[21] = test system: OVCAR-3; experiment: NCI in vitro cancer screen, Ovarian Cancer; conditions: OVCAR-3
[22] = test system: OVCAR-8; experiment: NCI in vitro cancer screen, Ovarian Cancer; conditions: OVCAR-8
[23] = test system: SK-OV-3; experiment: NCI in vitro cancer screen, Ovarian Cancer; conditions: SK-OV-3
[24] = test system: 786-0; experiment: NCI in vitro cancer screen, Renal Cancer; conditions: 786-0
[25] = test system: ACHN; experiment: NCI in vitro cancer screen, Renal Cancer
[26] = test system: RXF-393; experiment: NCI in vitro cancer screen, Renal Cancer; conditions: RXF-393
[27] = test system: DU-145; experiment: NCI in vitro cancer screen, Prostate Cancer; conditions: DU-145
[28] = test system: MCF7; experiment: NCI in vitro cancer screen, Breast Cancer; conditions: MCF7
[29] = test system: MDA-MB-231 (MDA-MB-231/ATCC); experiment: NCI in vitro cancer screen, Breast Cancer; conditions: MDA-MB-231
[30] = test system: HS 578T; experiment: NCI in vitro cancer screen, Breast Cancer
[31] = test system: MDA-MB-468; experiment: NCI in vitro cancer screen, Breast Cancer; conditions: MDA-MB-468
[32] = Homo sapiens, read-out: LC50 (the source's name)

Structure (SMILES): CC(C)=CCOc1cc(O)cc(/C=C/c2ccc(O)c(O)c2)c1 [USYDS4, (E)-3-(3-methyl-2-butenyloxy)-3′,4′,5-trihydroxystilbene]
- TGI [1]: >100 µM
- GI50 ([1]; Homo sapiens): 3.5 µM
- CC50 [1, 32]: > 100 µM
- GI50 ([2]; Homo sapiens, K562): 2.35 µM
- CC50 ([2]; Homo sapiens, K562, read-out: LC50 (the source's name)): > 100 µM
- TGI [2]: >100 µM
- TGI [3]: >100 µM
- GI50 ([3]; Homo sapiens): 0.95 µM
- CC50 [3, 32]: > 100 µM
- TGI [4]: 25.6 µM
- GI50 ([4]; Homo sapiens): 4.74 µM
- CC50 [4, 32]: > 100 µM
- TGI [5]: 59.6 µM
- GI50 ([5]; Homo sapiens): 9.55 µM
- CC50 [5, 32]: > 100 µM
- GI50 ([6]; Homo sapiens): 5.14 µM
- LC50 (50% lethal concentration) ([6]; Homo sapiens): 78 µM
- TGI [6]: 23.1 µM
- TGI [7]: 54.7 µM
- GI50 ([7]; Homo sapiens): 12.8 µM
- LC50 (50% lethal concentration) ([7]; Homo sapiens): > 100 µM
- GI50 ([8]; Homo sapiens): 1.07 µM
- CC50 [8, 32]: 6.04 µM
- TGI [8]: 2.54 µM
- TGI [9]: 19.0 µM
- GI50 ([9]; Homo sapiens): 5.16 µM
- CC50 [9, 32]: 53.4 µM
- TGI [10]: 16.0 µM
- GI50 ([10]; Homo sapiens): 4.55 µM
- LC50 (concentration killing 50% of cells) ([10]; Homo sapiens): 40.6 µM
- GI50 ([11]; Homo sapiens): 2.97 µM
- CC50 [11, 32]: 46.5 µM
- TGI [11]: 16.6 µM
- GI50 ([12]; Homo sapiens): 7.29 µM
- CC50 [12, 32]: 70.9 µM
- TGI [12]: 24.3 µM
- GI50 ([13]; Homo sapiens): 10.5 µM
- CC50 [13, 32]: 63.8 µM
- TGI [13]: 25.8 µM
- GI50 ([14]; Homo sapiens): 1.77 µM
- CC50 [14, 32]: 48.3 µM
- TGI [14]: 9.11 µM
- GI50 ([15]; Homo sapiens): 0.91 µM
- CC50 [15, 32]: 46.3 µM
- TGI [15]: 15.4 µM
- GI50 ([16]; Homo sapiens): 0.36 µM
- CC50 [16, 32]: > 100 µM
- TGI [16]: 21.6 µM
- GI50 ([17]; Homo sapiens): 9.18 µM
- LC50 ([17]; Homo sapiens): 77.9 µM
- TGI [17]: 27.6 µM
- GI50 ([18]; Homo sapiens): 1.42 µM
- CC50 [18, 32]: 30 µM
- TGI [18]: 8.35 µM
- GI50 ([19]; Homo sapiens): 5.44 µM
- CC50 [19, 32]: 48.6 µM
- TGI [19]: 19.4 µM
- GI50 ([20]; Homo sapiens, IGROV-1): 3.74 µM
- CC50 ([20]; Homo sapiens, IGROV-1, read-out: LC50 (the source's name)): > 100 µM
- TGI [20]: 44.8 µM
- GI50 ([21]; Homo sapiens): 3.98 µM
- CC50 [21, 32]: 44.9 µM
- TGI [21]: 15.0 µM
- GI50 ([22]; Homo sapiens): 4.94 µM
- CC50 [22, 32]: > 100 µM
- TGI [22]: 31.1 µM
- GI50 ([23]; Homo sapiens): 8.91 µM
- CC50 [23, 32]: > 100 µM
- TGI [23]: 57.0 µM
- TGI [24]: 20.5 µM
- GI50 ([24]; Homo sapiens): 4.41 µM
- LC50 (50% net cell kill) ([24]; Homo sapiens): > 100 µM
- TGI [25]: >100 µM
- GI50 ([25]; Homo sapiens): 4.57 µM
- CC50 [25, 32]: > 100 µM
- GI50 ([26]; Homo sapiens): 2.17 µM
- CC50 [26, 32]: 46 µM
- TGI [26]: 15.3 µM
- TGI [27]: 44.6 µM
- GI50 ([27]; Homo sapiens): 6.37 µM
- CC50 [27, 32]: > 100 µM
- GI50 ([28]; Homo sapiens): 2.57 µM
- CC50 [28, 32]: 51.1 µM
- TGI [28]: 18.2 µM
- GI50 ([29]; Homo sapiens): 1.04 µM
- CC50 [29, 32]: > 100 µM
- TGI [29]: 18.4 µM
- TGI [30]: 7.11 µM
- GI50 ([30]; Homo sapiens): 1 µM
- CC50 [30, 32]: > 100 µM
- GI50 ([31]; Homo sapiens): 2.53 µM
- CC50 [31, 32]: 55.1 µM
- TGI [31]: 9.51 µM

Reference: US10696615B2, “Prenylated hydroxystilbenes” (The University of Sydney, priority 2011, dated 2020)
